Laboratory results published in US6747164B2, “Use of amine compounds with improved biodegradability as adjuvants for pesticides and fertilizers” (priority 2000, dated 2004).
Several values for one entry are separate records, joined by “and”; a condition that tells them apart may be missing. Equal values may be shown once.

What was measured:
Type in all cases: in vivo
Brassica napus = test: Greenhouse test of glyphosate/adjuvant formulations with Brassica napus
Elymus repens = test: Greenhouse test of glyphosate/adjuvant formulations with Elymus repens
Lolium rigidum = test: Greenhouse test of glyphosate/adjuvant formulations with Lolium rigidum
[1] = Example 2, Table 4, glyphosate 0.75 kg a.e./ha, glyphosate/adjuvant 2:1, 4 weeks after spraying

With `CCCCC(CC)COC1OC(CO)C(O)C(O)C1O` (centres unmarked) [2-ethylhexyl glucoside, reference compound] as the molecule, how does the Effect (Brassica napus; [1]) read?
Its Effect is 63%.

Which Effect (Brassica napus; [1]) does the source give for `CCCCCCOC1OC(CO)C(O)C(O)C1O` (centres unmarked) [Hexyl glucoside, reference compound] here?
The Effect was 57%.

Which results are given for “Cocoamide of N,N-bishydroxyethyl-1,3-propylenediamine”?
Effect (Elymus repens; Example 2, Table 3, glyphosate 0.15 kg a.e./ha, glyphosate/adjuvant 2:1, 5 weeks after spraying, 100% = totally dead plant): 13%; Effect (Elymus repens; Example 2, Table 3, glyphosate 0.15 kg a.e./ha, glyphosate/adjuvant 5:1, 5 weeks after spraying): 8%; Effect (Elymus repens; Example 2, Table 3, glyphosate 0.25 kg a.e./ha, glyphosate/adjuvant 2:1, 5 weeks after spraying): 75%; Effect (Elymus repens; Example 2, Table 3, glyphosate 0.25 kg a.e./ha, glyphosate/adjuvant 5:1, 5 weeks after spraying): 65%; Effect (Elymus repens; Example 2, Table 3, glyphosate 0.75 kg a.e./ha, glyphosate/adjuvant 2:1, 5 weeks after spraying): 97%; Effect (Elymus repens; Example 2, Table 3, glyphosate 0.75 kg a.e./ha, glyphosate/adjuvant 5:1, 5 weeks after spraying): 95%; Effect (Elymus repens; Example 3, Table 6, glyphosate 0.15 kg a.e./ha, glyphosate/adjuvant 2:1, 7 weeks after spraying): 33%; Effect (Elymus repens; Example 3, Table 6, glyphosate 0.25 kg a.e./ha, glyphosate/adjuvant 2:1, 7 weeks after spraying): 47%; Effect (Elymus repens; Example 3, Table 6, glyphosate 0.75 kg a.e./ha, glyphosate/adjuvant 2:1, 7 weeks after spraying): 100%; Effect (Lolium rigidum; Example 2, Table 5, glyphosate 0.08 kg a.e./ha, glyphosate/adjuvant 2:1, 4 weeks after spraying): 57%; Effect (Lolium rigidum; Example 2, Table 5, glyphosate 0.08 kg a.e./ha, glyphosate/adjuvant 5:1, 4 weeks after spraying): 23%; Effect (Lolium rigidum; Example 2, Table 5, glyphosate 0.15 kg a.e./ha, glyphosate/adjuvant 2:1, 4 weeks after spraying): 78%; Effect (Lolium rigidum; Example 2, Table 5, glyphosate 0.15 kg a.e./ha, glyphosate/adjuvant 5:1, 4 weeks after spraying): 72%; Effect (Lolium rigidum; Example 2, Table 5, glyphosate 0.25 kg a.e./ha, glyphosate/adjuvant 2:1, 4 weeks after spraying): 97%; Effect (Lolium rigidum; Example 2, Table 5, glyphosate 0.25 kg a.e./ha, glyphosate/adjuvant 5:1, 4 weeks after spraying): 88%; Effect (Lolium rigidum; Example 3, Table 8, glyphosate 0.08 kg a.e./ha, glyphosate/adjuvant 2:1, 4 weeks after spraying): 40%; Effect (Lolium rigidum; Example 3, Table 8, glyphosate 0.15 kg a.e./ha, glyphosate/adjuvant 2:1, 4 weeks after spraying): 58%; Effect (Lolium rigidum; Example 3, Table 8, glyphosate 0.25 kg a.e./ha, glyphosate/adjuvant 2:1, 4 weeks after spraying): 93%; Effect (Brassica napus; Example 2, Table 4, glyphosate 0.15 kg a.e./ha, glyphosate/adjuvant 2:1, 4 weeks after spraying): 40%; Effect (Brassica napus; Example 2, Table 4, glyphosate 0.15 kg a.e./ha, glyphosate/adjuvant 5:1, 4 weeks after spraying): 8%; Effect (Brassica napus; Example 2, Table 4, glyphosate 0.25 kg a.e./ha, glyphosate/adjuvant 2:1, 4 weeks after spraying): 70%; Effect (Brassica napus; Example 2, Table 4, glyphosate 0.25 kg a.e./ha, glyphosate/adjuvant 5:1, 4 weeks after spraying): 73%; Effect (Brassica napus; [1]): 98%; Effect (Brassica napus; Example 2, Table 4, glyphosate 0.75 kg a.e./ha, glyphosate/adjuvant 5:1, 4 weeks after spraying): 87%; Effect (Brassica napus; Example 3, Table 7, glyphosate 0.15 kg a.e./ha, glyphosate/adjuvant 2:1, 4 weeks after spraying): 45%; Effect (Brassica napus; Example 3, Table 7, glyphosate 0.25 kg a.e./ha, glyphosate/adjuvant 2:1, 4 weeks after spraying): 52%; Effect (Brassica napus; Example 3, Table 7, glyphosate 0.75 kg a.e./ha, glyphosate/adjuvant 2:1, 4 weeks after spraying): 90%

How did the Effect (Lolium rigidum; in vivo) turn out when “Monoester between polyethyleneglycol (2.5 EO)-monococo ether monocarboxymethyl ether and triethanolamine” was run?
The Effect was 48% and 68% and 88%.

What does the source list for “Monoester between polyethyleneglycol (4.5 EO)-monococo ether monocarboxymethyl ether and triethanolamine”?
Effect (Lolium rigidum; in vivo): 52% and 72% and 96%; Effect (Brassica napus; in vivo): 58% and 75% and 92%
